# Measurements from patent publication US20260200897A1, “4-((5-(3-(4-(PYRIDIN-2-YL)CYCLOPENTYL)-1H-PYRAZOL-3-YL)AMINO)-BENZENESULFONAMIDE DERIVATIVES AND SIMILAR COMPOUNDS AS CDK INHIBITORS FOR THE TREATMENT OF CANCER” (BeOne Medicines I GmbH, priority 2023, published 2026).
# Columns and labels:
# CDK1/Cyclin B1 = CDK1/Cyclin B1 (Homo sapiens, UniProt P06493); assay: CDK1/Cyclin B1 TR-FRET biochemical assay, 1 mM ATP; conditions: 0.15 μM Rb (Ser780)-biotin substrate, 90 min reaction, Table 2
# CDK2/Cyclin E1 = CDK2/Cyclin E1 (Homo sapiens, UniProt P24941); assay: CDK2/Cyclin E1 TR-FRET biochemical assay, 1 mM ATP; conditions: 0.15 μM Rb (Ser780)-biotin substrate, 90 min reaction, Table 2
# CDK1/Cyclin B1, sequence (P06493 whole entry): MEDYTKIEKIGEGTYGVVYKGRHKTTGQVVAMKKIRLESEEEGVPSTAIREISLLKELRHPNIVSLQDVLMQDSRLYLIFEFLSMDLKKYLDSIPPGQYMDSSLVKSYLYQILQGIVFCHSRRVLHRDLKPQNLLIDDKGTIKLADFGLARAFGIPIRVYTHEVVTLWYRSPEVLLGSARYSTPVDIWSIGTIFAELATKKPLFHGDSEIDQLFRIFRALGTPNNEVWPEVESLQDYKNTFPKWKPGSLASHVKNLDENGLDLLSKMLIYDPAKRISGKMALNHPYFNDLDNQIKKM
# CDK1/Cyclin B1, sequence (P14635 whole entry partner): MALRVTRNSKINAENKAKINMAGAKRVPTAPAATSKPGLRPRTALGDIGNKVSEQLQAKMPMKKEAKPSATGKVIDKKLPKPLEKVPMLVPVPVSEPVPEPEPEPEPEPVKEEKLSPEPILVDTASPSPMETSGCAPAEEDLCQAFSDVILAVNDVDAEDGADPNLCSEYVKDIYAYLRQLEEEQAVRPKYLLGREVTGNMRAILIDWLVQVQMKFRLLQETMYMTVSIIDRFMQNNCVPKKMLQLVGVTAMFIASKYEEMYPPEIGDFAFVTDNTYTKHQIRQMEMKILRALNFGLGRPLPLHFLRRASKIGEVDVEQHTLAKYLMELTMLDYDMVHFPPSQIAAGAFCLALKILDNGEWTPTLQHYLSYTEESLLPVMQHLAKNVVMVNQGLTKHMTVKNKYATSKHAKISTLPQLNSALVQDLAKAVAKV
SMILES,IC50 (CDK1/Cyclin B1) [nM],IC50 (CDK2/Cyclin E1) [nM]
"CCOC(=O)c1nc(C2CCC(c3cc(Nc4ccc5c(c4F)CNS5(=O)=O)n[nH]3)C2)oc1C(C)C (centres unmarked) [Example 115, ethyl 2-(3-(3-((4-fluoro-1,1-dioxido-2,3-dihydrobenzo[d]isothiazol-5-yl)amino)-1H-pyrazol-5-yl)cyclopentyl)-5-isopropyloxazole-4-carboxylate]",> 10000,264
"O=S1(=O)NCc2c1ccc(Nc1cc(C3CCC(c4ncc(C5CC5)o4)C3)[nH]n1)c2F (centres unmarked) [Example 116, 5-((5-(3-(5-cyclopropyloxazol-2-yl)cyclopentyl)-1H-pyrazol-3-yl)amino)-4-fluoro-2,3-dihydrobenzo[d]isothiazole 1,1-dioxide]",> 10000,98
"Cc1ccnc(C2CCC(c3cc(Nc4ccc5c(c4F)CNS5(=O)=O)n[nH]3)C2)n1 (centres unmarked) [Example 124, 4-fluoro-5-((5-(3-(4-methylpyrimidin-2-yl)cyclopentyl)-1H-pyrazol-3-yl)amino)-2,3-dihydrobenzo[d]isothiazole 1,1-dioxide]",8470,107
"CCc1ccnc(C2CCC(c3cc(Nc4ccc5c(c4F)CNS5(=O)=O)n[nH]3)C2)n1 (centres unmarked) [Example 125, 5-((5-(3-(4-ethylpyrimidin-2-yl)cyclopentyl)-1H-pyrazol-3-yl)amino)-4-fluoro-2,3-dihydrobenzo[d]isothiazole 1,1-dioxide]",2760,40
"CC(C)c1ccnc(C2CCC(c3cc(Nc4ccc5c(c4F)CNS5(=O)=O)n[nH]3)C2)n1 (centres unmarked) [Example 126, 4-fluoro-5-((5-(3-(4-isopropylpyrimidin-2-yl)cyclopentyl)-1H-pyrazol-3-yl)amino)-2,3-dihydrobenzo[d]isothiazole 1,1-dioxide]",669,3.9
"CC(C)(C)c1coc(C2CCC(c3cc(Nc4ccc5c(c4)CS(=O)(=O)N5)n[nH]3)C2)n1 (centres unmarked) [Example 136, 5-((5-(3-(4-(tert-butyl)oxazol-2-yl)cyclopentyl)-1H-pyrazol-3-yl)amino)-1,3-dihydrobenzo[c]isothiazole 2,2-dioxide]",4950,60
"CC(C)(C)c1cnc(C2CCC(c3cc(Nc4ccc5c(c4)CS(=O)(=O)N5)n[nH]3)C2)s1 (centres unmarked) [Example 137, 5-((5-(3-(5-(tert-butyl)thiazol-2-yl)cyclopentyl)-1H-pyrazol-3-yl)amino)-1,3-dihydrobenzo[c]isothiazole 2,2-dioxide]",> 10000,2030
"CN1c2ccc(Nc3cc(C4CCC(c5ncc(C(C)(C)C)o5)C4)[nH]n3)cc2CS1(=O)=O (centres unmarked) [Example 140, 5-((5-(3-(5-(tert-butyl)oxazol-2-yl)cyclopentyl)-1H-pyrazol-3-yl)amino)-1-methyl-1,3-dihydrobenzo[c]isothiazole 2,2-dioxide]",624,6
"CN1c2ccc(Nc3cc([C@H]4CC[C@@H](c5ncc(C(C)(C)C)o5)C4)[nH]n3)cc2CS1(=O)=O [Example 141, 5-((5-((1S,3R)-3-(5-(tert-butyl)oxazol-2-yl)cyclopentyl)-1H-pyrazol-3-yl)amino)-1-methyl-1,3-dihydrobenzo[c]isothiazole 2,2-dioxide]",135,0.6
"CN1c2ccc(Nc3cc([C@@H]4CC[C@H](c5ncc(C(C)(C)C)o5)C4)[nH]n3)cc2CS1(=O)=O [Example 142, 5-((5-((1R,3S)-3-(5-(tert-butyl)oxazol-2-yl)cyclopentyl)-1H-pyrazol-3-yl)amino)-1-methyl-1,3-dihydrobenzo[c]isothiazole 2,2-dioxide]",2530,12
"CC(C)c1cnc(C2CCC(c3cc(Nc4ccc5c(c4)CS(=O)(=O)N5C)n[nH]3)C2)o1 (centres unmarked) [Example 143, 5-((5-(3-(5-isopropyloxazol-2-yl)cyclopentyl)-1H-pyrazol-3-yl)amino)-1-methyl-1,3-dihydrobenzo[c]isothiazole 2,2-dioxide]",1320,14
"CC(C)(C)c1coc(C2CCC(c3cc(Nc4ccc5c(c4F)CS(=O)(=O)N5)n[nH]3)C2)n1 (centres unmarked) [Example 148, 5-((5-(3-(4-(tert-butyl)oxazol-2-yl)cyclopentyl)-1H-pyrazol-3-yl)amino)-4-fluoro-1,3-dihydrobenzo[c]isothiazole 2,2-dioxide]",7400,78
"CC(C)(O)c1cc(C2CCC(c3cc(Nc4ccc5c(c4F)CS(=O)(=O)N5)n[nH]3)C2)n[nH]1 (centres unmarked) [Example 150, 4-fluoro-5-((5-(3-(5-(2-hydroxypropan-2-yl)-1H-pyrazol-3-yl)cyclopentyl)-1H-pyrazol-3-yl)amino)-1,3-dihydrobenzo[c]isothiazole 2,2-dioxide]",> 10000,189
"C=C(C)c1cc(C2CCC(c3cc(Nc4ccc5c(c4F)CS(=O)(=O)N5)n[nH]3)C2)n[nH]1 (centres unmarked) [Example 151, 4-fluoro-5-((5-(3-(5-(prop-1-en-2-yl)-1H-pyrazol-3-yl)cyclopentyl)-1H-pyrazol-3-yl)amino)-1,3-dihydrobenzo[c]isothiazole 2,2-dioxide]",> 10000,1400
"CC(C)(C)c1ccc(C2CCC(c3cc(Nc4ccc5c(c4F)CS(=O)(=O)N5)n[nH]3)C2)o1 (centres unmarked) [Example 153, 5-((5-(3-(5-(tert-butyl)furan-2-yl)cyclopentyl)-1H-pyrazol-3-yl)amino)-4-fluoro-1,3-dihydrobenzo[c]isothiazole 2,2-dioxide]",> 10000,1020
"Cc1nc(C2CCC(c3cc(Nc4ccc5c(c4F)CS(=O)(=O)N5)n[nH]3)C2)oc1C(C)(C)C (centres unmarked) [Example 154, 5-((5-(3-(5-(tert-butyl)-4-methyloxazol-2-yl)cyclopentyl)-1H-pyrazol-3-yl)amino)-4-fluoro-1,3-dihydrobenzo[c]isothiazole 2,2-dioxide]",540,9.6

# The remaining lines, values ahead:
IC50 (CDK1/Cyclin B1) [nM],IC50 (CDK2/Cyclin E1) [nM],SMILES
6770,34,"CC(C)(C)c1ccnc(C2CCC(c3cc(Nc4ccc5c(c4F)CNS5(=O)=O)[nH]n3)C2)c1 (centres unmarked) [Example 117, 5-((3-(3-(4-(tert-butyl)pyridin-2-yl)cyclopentyl)-1H-pyrazol-5-yl)amino)-4-fluoro-2,3-dihydrobenzo[d]isothiazole 1,1-dioxide]"
> 10000,725,"CC(C)(C)c1cccc(C2CCC(c3cc(Nc4ccc5c(c4F)CNS5(=O)=O)[nH]n3)C2)n1 (centres unmarked) [Example 118, 5-((3-(3-(6-(tert-butyl)pyridin-2-yl)cyclopentyl)-1H-pyrazol-5-yl)amino)-4-fluoro-2,3-dihydrobenzo[d]isothiazole 1,1-dioxide]"
> 10000,> 10000,"CC(C)(C)c1ccc(C2CCC(c3cc(Nc4ccc5c(c4F)CNS5(=O)=O)[nH]n3)C2)nc1 (centres unmarked) [Example 119, 5-((3-(3-(5-(tert-butyl)pyridin-2-yl)cyclopentyl)-1H-pyrazol-5-yl)amino)-4-fluoro-2,3-dihydrobenzo[d]isothiazole 1,1-dioxide]"
> 10000,4410,"Cc1cccc(C2CCC(c3cc(Nc4ccc5c(c4F)CNS5(=O)=O)n[nH]3)C2)n1 (centres unmarked) [Example 120, 4-fluoro-5-((5-(3-(6-methylpyridin-2-yl)cyclopentyl)-1H-pyrazol-3-yl)amino)-2,3-dihydrobenzo[d]isothiazole 1,1-dioxide]"
> 10000,3870,"COc1cccc(C2CCC(c3cc(Nc4ccc5c(c4F)CNS5(=O)=O)n[nH]3)C2)n1 (centres unmarked) [Example 121, 4-fluoro-5-((5-(3-(6-methoxypyridin-2-yl)cyclopentyl)-1H-pyrazol-3-yl)amino)-2,3-dihydrobenzo[d]isothiazole 1,1-dioxide]"
> 10000,72,"CC(C)c1ccnc(C2CCC(c3cc(Nc4ccc5c(c4F)CNS5(=O)=O)n[nH]3)C2)c1 (centres unmarked) [Example 122, 4-fluoro-5-((5-(3-(4-isopropylpyridin-2-yl)cyclopentyl)-1H-pyrazol-3-yl)amino)-2,3-dihydrobenzo[d]isothiazole 1,1-dioxide]"
> 10000,1740,"Cc1cc(C(C)(C)C)cc(C2CCC(c3cc(Nc4ccc5c(c4F)CNS5(=O)=O)n[nH]3)C2)n1 (centres unmarked) [Example 123, 5-((5-(3-(4-(tert-butyl)-6-methylpyridin-2-yl)cyclopentyl)-1H-pyrazol-3-yl)amino)-4-fluoro-2,3-dihydrobenzo[d]isothiazole 1,1-dioxide]"
> 10000,1250,"CC(C)(C)c1cncc(C2CCC(c3cc(Nc4ccc5c(c4F)CNS5(=O)=O)n[nH]3)C2)c1 (centres unmarked) [Example 128, 5-((5-(3-(5-(tert-butyl)pyridin-3-yl)cyclopentyl)-1H-pyrazol-3-yl)amino)-4-fluoro-2,3-dihydrobenzo[d]isothiazole 1,1-dioxide]"
> 10000,8020,"CC(C)(C)c1cc(C2CCC(c3cc(Nc4ccc5c(c4F)CNS5(=O)=O)n[nH]3)C2)ccn1 (centres unmarked) [Example 129, 5-((5-(3-(2-(tert-butyl)pyridin-4-yl)cyclopentyl)-1H-pyrazol-3-yl)amino)-4-fluoro-2,3-dihydrobenzo[d]isothiazole 1,1-dioxide]"
> 10000,2120,"CC(C)(C)c1cc(C2CCC(c3cc(Nc4ccc5c(c4F)CNS5(=O)=O)n[nH]3)C2)ncn1 (centres unmarked) [Example 130, 5-((5-(3-(6-(tert-butyl)pyrimidin-4-yl)cyclopentyl)-1H-pyrazol-3-yl)amino)-4-fluoro-2,3-dihydrobenzo[d]isothiazole 1,1-dioxide]"
> 10000,167,"CC(C)(C)c1cnnc(C2CCC(c3cc(Nc4ccc5c(c4F)CNS5(=O)=O)n[nH]3)C2)c1 (centres unmarked) [Example 131, 5-((5-(3-(5-(tert-butyl)pyridazin-3-yl)cyclopentyl)-1H-pyrazol-3-yl)amino)-4-fluoro-2,3-dihydrobenzo[d]isothiazole 1,1-dioxide]"
> 10000,> 10000,"CC(C)(C)c1cccc(C2CCC(c3cc(Nc4ccc5c(c4F)CNS5(=O)=O)n[nH]3)C2)c1 (centres unmarked) [Example 132, 5-((5-(3-(3-(tert-butyl)phenyl)cyclopentyl)-1H-pyrazol-3-yl)amino)-4-fluoro-2,3-dihydrobenzo[d]isothiazole 1,1-dioxide]"
